biological target: T1, human NHE-3 protein (expressed in the LAP1 cell line) (Homo sapiens, UniProt P48764); assay: Inhibition of sodium/proton exchanger subtype 3: recovery of intracellular pH after acidification (BCECF fluorescence); type: cell-based; details: at 30 μM, pHi recovery as percentage of the maximum recovery
T1 construct: expressed in transfected cells; host or cells: LAP1 cell line
T1 sequence (P48764 26-834): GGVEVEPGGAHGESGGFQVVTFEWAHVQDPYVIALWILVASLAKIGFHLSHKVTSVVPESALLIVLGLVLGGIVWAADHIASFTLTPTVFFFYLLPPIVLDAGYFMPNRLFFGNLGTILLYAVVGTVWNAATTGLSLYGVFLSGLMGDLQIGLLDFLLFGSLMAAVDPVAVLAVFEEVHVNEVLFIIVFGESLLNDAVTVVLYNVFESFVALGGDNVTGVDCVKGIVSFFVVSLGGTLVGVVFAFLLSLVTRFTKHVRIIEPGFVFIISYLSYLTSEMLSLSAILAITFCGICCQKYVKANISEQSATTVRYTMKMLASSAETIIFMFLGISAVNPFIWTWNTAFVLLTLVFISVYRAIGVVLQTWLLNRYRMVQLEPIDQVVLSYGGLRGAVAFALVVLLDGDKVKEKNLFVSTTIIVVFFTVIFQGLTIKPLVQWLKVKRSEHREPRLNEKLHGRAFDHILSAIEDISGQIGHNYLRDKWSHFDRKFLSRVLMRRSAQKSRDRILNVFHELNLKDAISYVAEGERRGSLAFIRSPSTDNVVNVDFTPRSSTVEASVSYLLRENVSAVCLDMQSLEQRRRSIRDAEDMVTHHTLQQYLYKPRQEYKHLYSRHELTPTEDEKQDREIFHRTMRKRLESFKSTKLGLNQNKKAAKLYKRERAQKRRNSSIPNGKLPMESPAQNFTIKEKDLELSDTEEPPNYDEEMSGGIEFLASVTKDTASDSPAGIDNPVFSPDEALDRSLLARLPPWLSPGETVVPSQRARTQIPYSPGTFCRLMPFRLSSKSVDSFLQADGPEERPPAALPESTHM
Description: Biological testing of the novel compounds was accomplished by measuring inhibition of the sodium/proton exchanger subtype 3.
The remaining activity of the human NHE-3 protein (expressed in the LAP1 cell line) was determined by measuring the recovery in the intracellular pH (pHi) after an acidification, which starts when the NHE is capable of functioning, even under bicarbonate-free conditions. For this purpose, the pHi was determined using the pH-sensitive fluorescent dye BCECF (Calbiochem, the precursor BCECF-AM is employed). The cells were initially loaded with BCECF. […] The intracellular acidification was induced by addition of 975 μl of an NH4Cl-free buffer (see below) to 25 μl aliquots of the cells incubated in NH4Cl buffer. The subsequent rate of pH recovery was recorded for 3 minutes. To calculate the inhibitory power of the substances tested, the cells were initially investigated in buffers in which complete or absolutely no pH recovery took place. […] Test solutions of the substances of interest were made up in the Na^+-containing buffer. Recovery of the intracellular pH at the tested concentration of a substance was expressed as a percentage of the maximum recovery.

Compound | remaining activity of hNHE3 [%]
CC(=O)c1c(C)nc2ccccc2c1NCc1ccccc1CCC1(O)CCC2(C)C(CC(O)C3C2CC(O)C2(C)C(C(C)CCC(=O)O)CCC32)C1 (stereo not drawn) [Example 18, 2-Methyl-3-acetyl-4-{2-[1-(3α,7α,12α-trihydroxy-10β,13β-dimethyl-17β(3-carboxy-1-methylpropyl)hexadecahydrocyclopenta[a]phenanthren-3-yl)eth-2-yl]benzylamino}quinoline] | 36
CC(=O)c1c(C)nc2ccccc2c1NCc1ccc(CCC2(O)CCC3(C)C(CC(O)C4C3CC(O)C3(C)C(C(C)CCC(=O)O)CCC43)C2)cc1 (stereo not drawn) [Example 2, 2-Methyl-3-acetyl-4-{4-[1-(3α,7α, 12α-trihydroxy-10β,13β-dimethyl-17β-(3-carboxy-1-methylpropyl)hexadecahydrocyclopenta[a]phenanthren-3-yl)eth-2-yl]benzylamino}quinoline] | 33

same assay, conditions: pHi recovery as percentage of the maximum recovery, read-out: remaining activity of hNHE3

Compound | remaining activity at 30 µM [%]
CC(=O)c1c(C)nc2ccccc2c1NCc1ccc(CCC2(O)CCC3(C)C(CC(O)C4C3CC(O)C3(C)C4CC[C@@H]3C(C)CCC(=O)O)C2)c(F)c1 (stereo partly drawn) [Example 24, 2-Methyl-3-acetyl-4-{4-[1-(3α,7α,12α-trihydroxy-10β,13β-dimehtyl-17β-(3-carboxy-1-methylpropyl)hexadecahydrocyclopenta[a]phenanthren-3-yl)eth-2-yl]-3-fluorobenzylamino}quinoline] | 29
CC(=O)c1c(NCc2ccc(C#CC3(O)CC[C@@]4(C)C(CC(O)C5C4CC(O)[C@@]4(C)C5CC[C@@H]4[C@H](C)CCC(=O)O)C3)cc2)cc(C)nc1C (stereo partly drawn) [Example 30, 2,6-Dimethyl-3-acetyl-4-{4-[1-(3α,7α,12α-trihydroxy-10β,13β-dimethyl-17β-(3-carboxy-1-methylpropyl)hexadecahydrocyclopenta[a]phenanthren-3-yl)ethyn-2-yl]benzylamino}pyridine] | 48
CC(=O)c1c(C)nc2ccccc2c1NCc1ccccc1C#CC1(O)CC[C@@]2(C)C(CC(O)C3C2CC(O)[C@@]2(C)C3CC[C@@H]2[C@H](C)CCC(=O)O)C1 (stereo partly drawn) [Example 17, 2-Methyl-3-acetyl-4-{2-[1-(3α,7α,12α-trihydroxy-10β,13β-dimethyl-17β-(3-carboxy-1-methylpropyl)hexadecahydrocyclopenta[a]phenanthren-3-yl)ethyn-2-yl]benzylamino}quinoline] | 36
CC(=O)c1c(C)nc2ccccc2c1NCc1ccc(C#CC2(O)CCC3(C)C(CC(O)C4C3CC(O)C3(C)C4CC[C@@H]3C(C)CCC(=O)O)C2)c(Cl)c1 (stereo partly drawn) [Example 25, 2-Methyl-3-acetyl-4-{4-[1-(3α,7α,12α-trihydroxy-10β,13β-dimethyl-17β-(3-carboxy-1-methylpropyl)hexadecahydrocyclopenta[a]phenanthren-3-yl)ethyn-2-yl]-3-chlorobenzylamino}quinoline] | 18
CC(=O)c1c(NCc2ccc(CCC3(O)CC[C@@]4(C)C(CC(O)C5C4CC(O)[C@@]4(C)C5CC[C@@H]4[C@H](C)CCC(=O)O)C3)cc2)cc(C)nc1C (stereo partly drawn) [Example 31, 2,6-Dimethyl-3-acetyl-4-{4-[1-(3α,7α,12α-trihydroxy-10β,13β-dimethyl-17β-(3-carboxy-1-methylpropyl)hexadecahydrocyclopenta[a]phenanthren-3-yl)eth-2-yl]benzylamino}pyridine] | 69
COC(=O)c1c(C)nc2ccccc2c1NCc1ccc(C#CC2(O)CCC3(C)C(CC(O)C4C3CC(O)C3(C)C4CC[C@@H]3C(C)CCC(=O)O)C2)cc1 (stereo partly drawn) [Example 6, Methyl 2-methyl-4-{4-[1-(3α,7α,12α-trihydroxy-10β, 13β-dimethyl-17β-(3carboxy-1-methylpropyl)hexadecahydrocyclopenta[a]phenanthren-3-yl)ethyn-2-yl]benzylamino}quinoline-3-carboxylate] | 39
CC(=O)c1c(C)nc2ccccc2c1NCc1ccc(CCC2(O)CCC3(C)C(CC(O)C4C3CC(O)C3(C)C4CC[C@@H]3C(C)CCC(=O)O)C2)cc1F (stereo partly drawn) [Example 27, 2-Methyl-3-acetyl-4-{4-[1-(3α,7α,12α-trihydroxy-10β,13β-dimethyl-17β-(3-carboxy-1-methylpropyl)hexadecahydrocyclopenta[a]phenanthren-3-yl)eth-2-yl]-2-fluorobenzylamino}quinoline] | 54
CC(=O)c1c(C)nc2ccccc2c1NCc1ccc(C#CC2(O)CCC3(C)C(CC(O)C4C3CC(O)C3(C)C4CC[C@@H]3C(C)CCC(=O)O)C2)cc1 (stereo partly drawn) [Example 1, 2-Methyl-3-acetyl-4-{4-[1-(3α,7α, 12α-trihydroxy-10β, 13β-dimethyl-17β-(carboxy-1-methylpropyl)hexadecahydrocyclopenta[a]phenanthren-3-yl)ethyn-2-yl]-benzylamino}quinoline] | 26
CC(=O)c1c(C)nc2ccccc2c1NCc1ccc(CCC2(O)CCC3(C)C(CC(O)C4C3CC(O)C3(C)C4CC[C@@H]3C(C)CCC(=O)O)C2)cc1Cl (stereo partly drawn) [Example 29, 2-Methyl-3-acetyl-4-{4-[1-(3α,7α,12α-trihydroxy-10β,13β-dimethyl-17β(3-carboxy-1-methylpropyl)hexadecahydrocyclopenta[a]phenanthren-3-yl)eth-2-yl]-2-chlorobenzylamino}quinoline] | 61
CC(=O)c1c(C)nc2ccccc2c1NCc1ccc(C#CC2(O)CCC3(C)C(CC(O)C4C3CC(O)C3(C)C4CC[C@@H]3C(C)CCC(=O)O)C2)c(F)c1 (stereo partly drawn) [Example 23, 2-Methyl-3-acetyl-4-{4-[1-(3α,7α,12α-trihydroxy-10β,13β-dimethyl-17β-(3-carboxy-1-methylpropyl)hexadecahydrocyclopenta[a]phenanthren-3-yl)ethyn-2-yl]-3-fluorobenzylamino}quinoline] | 16
CC(=O)c1c(C)nc2ccccc2c1NCc1cccc(CC[C@@]2(O)CC[C@@]3(C)C(C[C@@H](O)C4C3C[C@H](O)[C@@]3(C)C4CC[C@@H]3[C@H](C)CCC(=O)NCCS(=O)(=O)O)C2)c1 (stereo partly drawn) [Example 16, 2-Methyl-3-acetyl-4-{3-[1-(3α,7α,12α-trihydroxy-10β,13β-dimethyl-17β(3-(2-sulfoethylcarbamoyl)-1-methylpropyl)hexadecahydrocyclopenta[a]phenanthren-3-yl)eth-2-yl]benzylamino}quinoline] | 27
COC(=O)CC[C@@H](C)[C@H]1CCC2C3C(C[C@H](O)[C@@]21C)[C@@]1(C)CC[C@H](OCCNC(=O)c2c(C)nc4ccccc4c2NCc2ccccc2)CC1C[C@H]3O (stereo partly drawn) [Example 3, 2-Methyl-4-aminobenzyl-N-{2-[7α, 12α-dihydroxy-10β,13β-dimethyl-17β-(3-methoxycarbonyl-1-methylpropyl)hexadecahydrocyclopenta[a]phen-anthren-3β-yloxy]ethyl}quinoline-3-carboxamide] | 22
CC(=O)c1c(C)nc2ccccc2c1NCc1ccc(C#CC2(O)CCC3(C)C(CC(O)C4C3CC(O)C3(C)C4CC[C@@H]3C(C)CCC(=O)O)C2)cc1Cl (stereo partly drawn) [Example 28, 2-Methyl-3-acetyl-4-{4-[1-(3α,7α,12α-trihydroxy-10β,13β-dimethyl-17β-(3-carboxy-1-methylpropyl)hexadecahydrocyclopenta[a]phenanthren-3-yl)ethyn-2-yl]-2-chlorobenzylamino}quinoline] | 69
CC(=O)c1c(C)nc2ccccc2c1NCc1cccc(CC[C@@]2(O)CC[C@@]3(C)C(C[C@@H](O)C4C3C[C@H](O)[C@@]3(C)C4CC[C@@H]3[C@H](C)CCC(=O)NCC(=O)O)C2)c1 (stereo partly drawn) [Example 15, 2-Methyl-3-acetyl-4-{3-[1-(3α,7α,12α-trihydroxy-10β,13β-dimethyl-17β-(3-carboxymethylcarbamoyl-1-methylpropyl)hexadecahydrocyclopenta[a]phenanthren-3-yl)eth-2-yl]benzylamino}quinoline] | 65
CC(=O)c1c(C)nc2ccccc2c1NCc1ccc(C#CC2(O)CCC3(C)C(CC(O)C4C3CC(O)C3(C)C4CC[C@@H]3C(C)CCC(=O)O)C2)cc1F (stereo partly drawn) [Example 26] | 52

test system: not given; assay: not given; details: not given

melting point | Compound
223 °C (dec.) | COC(=O)c1c(C)nc2ccc(C#CC3(O)CCC4(C)C(CC(O)C5C4CC(O)C4(C)C5CC[C@@H]4C(C)CCC(=O)O)C3)cc2c1NCc1ccccc1 (stereo partly drawn)
